A short description of data set [1]: Toxicity against human lymphocytes was determined up to 100 uM concentration; NA means Not Active.
In data set [2] the test system is Hepatitis B virus. The data set is described as follows: Compound was evaluated against hepatitis B virus; IA means inactive. Type of data set: functional, organism-based.
Another data set relates to Huh-7. The data set is described as follows: Toxicity against human Huh7 cells was determined up to 100 uM concentration; NA means Not Active. In kind it is cell-based.
Data set [3] deals with Hepatitis C virus. The data set is described as follows: Compound was evaluated against hepatitis C virus; IA means inactive. The conditions noted are these: Hepacivirus hominis. Type of data set: functional, organism-based.
Another data set has as its system HepG2. The data set is described as follows: Toxicity against human hepatoma HepG2 cells was determined up to 100 uM concentration; NA means Not Active. Type of data set: cell-based.
Data set [4] relates to Hepatitis B virus. The data set is described as follows: Activity of compound against hepatitis B virus was determined; IA means inactive. Type of data set: functional, organism-based.
For data set [5], the system named is Hepatitis C virus. The data set is described as follows: Activity of compound against hepatitis C virus was determined; IA means inactive. Type of data set: functional, organism-based. The conditions noted are these: Hepacivirus hominis.

Each structure is given as a SMILES string. Activity calls are given as the source filed them. No cut-off for these calls is given here.

The text below walks through data of ChEMBL document CHEMBL1147600, “Synthesis of 5'-C-methyl-1',3'-dioxolan-4'-yl nucleosides” (Bioorg Med Chem Lett, 2004).

Regarding `C[C@H]1O[C@@H](COC(=O)c2ccccc2)O[C@H]1n1cc(F)c(N)nc1=O`, the Toxicity result (in data set [1]; in the data set with Huh-7; with HepG2) was “Not Active” in each case. Also, the result with Hepatitis B virus [2] and in the data set with Hepatitis C virus [3] was inactive.

On to `C[C@@H]1OC(CO)OC1n1cc(F)c(N)nc1=O` (stereo not given in full), for which the Toxicity result (in data set [1]; with Huh-7; in the data set on HepG2) was “Not Active” throughout. Besides, the result in the data set with Hepatitis B virus [2] and with Hepatitis C virus [3] was inactive.

With `C[C@H]1O[C@@H](COC(=O)c2ccccc2)O[C@@H]1n1cc(F)c(N)nc1=O`, the Toxicity entry (in data set [1]; in the data set with Huh-7; in the data set with HepG2) was “Not Active” each time. Further, the result in the data set with Hepatitis B virus [4] and with Hepatitis C virus [5] was inactive.

In the case of `C[C@H]1O[C@@H](CO)O[C@@H]1n1cc(F)c(N)nc1=O`, the Toxicity result (in data set [1]; in the data set on Huh-7; in the data set with HepG2) was “Not Active” each time. The outcome in the data set with Hepatitis B virus [2] and with Hepatitis C virus [3] was inactive.

As for `C[C@H]1O[C@@H](CO)O[C@H]1n1cc(F)c(N)nc1=O`, the Toxicity result (in data set [1]; in the data set with Huh-7; with HepG2) was “Not Active” each time. The outcome in the data set with Hepatitis B virus [2] and in the data set on Hepatitis C virus [3] was inactive.
